Test results reported in patent publication US20100292257A1, “USES OF 2-[PIPERIDINYL] METHYL-2, 3-DIHYDROIMIDAZO [1,2-C] QUINAZOLIN-5 (6H)-ONE FOR PROVIDING AN ANALGESIC EFFECT, ANTI-ALLERGIC EFFECT AND HISTAMINE H1 RECEPTOR ANTAGONISM EFFECT” (Medical and Pharmaceutical Industry Technology and …, priority 2007, published 2010).
Blank lines part the entries; values can stand above or below the compound they belong to.

What was measured:
[1] = molecular target: T1, Histamine H1 Receptor (Rattus norvegicus, UniProt P31390); test: Histamine H1 antagonism (histamine-induced wheal); type: in vivo, rats; conditions: for Total Score: 1 h before intradermal histamine, wheal diameter score, group of five rats, vehicle 50; for Inhibition (%): inhibition of histamine-induced blue colored wheal vs vehicle
T1 construct: immediately challenged with two intradermal injection of histamine; from tissue; host or cells: living Wistar derived male rats (skin, intradermal histamine challenge)
T1 sequence (P31390 whole entry): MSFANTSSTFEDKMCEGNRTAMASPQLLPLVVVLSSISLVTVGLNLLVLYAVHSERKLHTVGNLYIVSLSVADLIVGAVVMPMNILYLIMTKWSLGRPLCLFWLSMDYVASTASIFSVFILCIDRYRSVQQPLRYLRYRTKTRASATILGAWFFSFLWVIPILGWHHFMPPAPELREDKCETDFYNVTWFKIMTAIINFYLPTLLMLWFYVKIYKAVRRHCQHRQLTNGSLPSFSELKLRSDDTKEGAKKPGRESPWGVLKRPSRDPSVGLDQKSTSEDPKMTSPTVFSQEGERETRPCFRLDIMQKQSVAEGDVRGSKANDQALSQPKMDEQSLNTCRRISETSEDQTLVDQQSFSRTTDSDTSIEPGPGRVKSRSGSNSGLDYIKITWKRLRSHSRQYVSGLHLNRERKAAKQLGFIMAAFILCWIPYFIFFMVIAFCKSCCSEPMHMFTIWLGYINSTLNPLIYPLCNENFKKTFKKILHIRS
Procedure: After one hour, animals were injected with Evans Blue dye (5 mg/0.5 ml/rat) intravenously and immediately challenged with two intradermal injection of histamine (each 30 μg/0.05 ml). The animals were sacrificed 30 minutes later. The two wheal diameters were then measured for each animal and scored as follows: • Score 0: diameter<0.05 cm • Score 1: diameter 0.05-0.20 cm • Score 2: diameter 0.2-0.4 cm • Score 3: diameter 0.4-0.6 cm • Score 4: diameter 0.6-0.8 cm • Score 5: diameter>0.8 cm
Maximum possible score for each animal total 5×2=10.

[2] = tested on: Wistar derived male rats; test: Passive cutaneous anaphylaxis; type: in vivo; conditions: for Total Score: wheal diameter score, group of five rats, vehicle 50
Procedure: A group of five Wistar derived male rats weighing 80±20 g was passively sensitized 16 hours earlier by intradermal injection of reaginic antiovalbumin serum (0.5 ml) on two spots of the dorsal surface. […] Within one hour after administration of the above substances, the animals were challenged intravenously with a mixture of ovalbumin (1 mg) and Evans Blue dye (5 mg) and sacrificed 30 minutes later. The two wheal diameters were measured for each animal and scored as follows: • Score 0: diameter<0.05 cm • Score 1: diameter 0.05-0.20 cm • Score 2: diameter 0.2-0.4 cm • Score 3: diameter 0.4-0.6 cm • Score 4: diameter 0.6-0.8 cm • Score 5: diameter>0.8 cm
Maximum possible score for each animal total 5×2=10. [Reference: Goose, J. and Blair, A. M. J. N. Passive cutaneous anaphylaxis in the rat, induced with two homologous reagin-like antibodies and its specific inhibition with disodium chromoglycate. Immunology 16: 749-760, 1969.]
(Total score of vehicle group−Total score of tested group)/(Total score of vehicle group)×100%

[3] = tested on: CD-1 (Crl.) derived male mice; test: Acetic acid-induced writhing assay; type: in vivo; conditions: 1 h before acetic acid 0.5%, 20 ml/kg i.p., writhes 5th-10th min, vehicle 12.4 ± 1.5
Procedure: Vehicle (2% Tween 80, 10 ml/kg), PDC-130 or aspirin (100 mg/kg) was administered orally to groups of eight CD-1 (Crl.) derived male mice, weighing 24±2 g, 1 hour before intraperitoneal injection of acetic acid (0.5%, 20 ml/kg). The number of writhes of animals was observed and recorded during a period of time from the 5th to the 10th minutes period after acetic acid administration. [Reference: Inoue. K., Motonaga, A. and Nishimura, T. Mechanism of antiinflammatory action of etodolac. Arzneim-Forsch./Drug Res. 41: 235-239, 1991.]

[4] = tested on: CD-1 (Crl.) derived male mice; test: Phenylquinone (PQ)-induced writhing assay; type: in vivo; conditions: 1 h before phenylquinone 2 mg/kg i.p., writhes 5th-10th min, vehicle 15.1 ± 1.4
Procedure: Vehicle (2% Tween 80, 10 ml/kg), PDC-130 or aspirin was orally administered to a group of eight CD-1 (Crl.) derived male mice weighing 24±2 g. One hour later, phenylquinone (2 mg/kg) was given by intraperitoneal injection. […] of animals was observed and recorded during a period of time from the 5th to 10th minutes after PQ administration, [Reference: Siegmund, E, Cadmus, R. and Lu, G. A method for evaluating both non-narcotic and narcotic analgesics. Proc. Soc. Exp. Biol. Med. 952: 729-731, 1957.]

Total Score ([1]; 3 mg/kg orally): 20
Inhibition (%) ([1]; 3 mg/kg orally): 60%
Total Score ([1]; 10 mg/kg orally): 14
Inhibition (%) ([1]; 10 mg/kg orally): 72%
Total Score ([1]; 30 mg/kg orally): 10
Inhibition (%) ([1]; 30 mg/kg orally): 80%
Structure (SMILES): O=C(c1ccc(F)cc1)C1CCN(CC2CN3C(=O)Nc4ccccc4C3=N2)CC1 (stereo not drawn) [PDC-130, 2-[1-(4-p-fluorobenzoyl)piperidinyl]methyl-2,3-dihydroimidazo[1,2-c]-quinazolin-5(6H)-one]
Inhibition (%) ([2]; 3 mg/kg orally, inhibition of passive cutaneous anaphylaxis blue colored wheal vs vehicle): 68%
Total Score ([2]; 3 mg/kg orally): 16
Inhibition (%) ([2]; 10 mg/kg orally, inhibition of passive cutaneous anaphylaxis blue colored wheal vs vehicle): 80%
Total Score ([2]; 10 mg/kg orally): 10
Inhibition (%) ([2]; 30 mg/kg orally, inhibition of passive cutaneous anaphylaxis blue colored wheal vs vehicle): 80%
Total Score ([2]; 30 mg/kg orally): 10
Number of Writhing ([3]; 0.03 mg/kg orally): 12.1 ± 1.6
Number of Writhing ([3]; 0.1 mg/kg orally): 5.0 ± 1.0
Number of Writhing ([3]; 0.3 mg/kg orally): 5.3 ± 1.1
Number of Writhing ([3]; 1 mg/kg orally): 2.1 ± 1.1
Number of Writhing ([4]; 0.03 mg/kg orally): 12.1 ± 1.6
Number of Writhing ([4]; 0.1 mg/kg orally): 6.4 ± 1.6
Number of Writhing ([4]; 0.3 mg/kg orally): 5.3 ± 1.7
Number of Writhing ([4]; 1 mg/kg orally): 2.8 ± 1.2

Structure (SMILES): CC(=O)Oc1ccccc1C(=O)O [Aspirin, aspirin, reference compound]
Number of Writhing ([3]; 100 mg/kg orally): 2.4 ± 1.0
Number of Writhing ([4]; 100 mg/kg orally): 5.5 ± 1.5

Structure (SMILES): CN1CCC(=C2c3ccccc3C=Cc3ccccc32)CC1 [Cyproheptadine, cyproheptadine, reference compound]
Total Score ([2]; 1 mg/kg orally): 14
inhibition at 1 mg/kg ([2]; Rattus norvegicus, po, 1 mg/kg orally, inhibition of passive cutaneous anaphylaxis blue colored wheal vs vehicle): 72%
